The source of these data is patent publication US6476263B1, “Compounds for inhibiting β-amyloid peptide release and/or its synthesis” (Elan Pharmaceuticals, Inc., priority 1996, dated 2002).

`O=C(CC1CCCC1)N[C@H](C(=O)N[C@H](CO)c1ccccc1)c1ccccc1` [Example 247, N-[N-(Cyclopentaneacetyl)-L-phenylglycinyl]-L-phenylglycinol]: the melting point (in general, the temperature of the solid-liquid transition) amounted to 201.4 °C.

Consider `CCCC[C@H](NC(=O)Cc1cc(F)cc(F)c1)C(=O)N[C@H](C(=O)OC)c1ccccc1` [Example 252, N-[N-(3,5-Difluorophenylacetyl)-L-norleucinyl]-L-phenylglycine Methyl Ester], for which the melting point was in the range of 188 to 189.5 °C.

`CCC[C@H](NC(=O)Cc1cc(F)cc(F)c1)C(=O)N[C@H](C(=O)OC)c1ccccc1` [Example 253, N-[N-(3,5-Difluorophenylacetyl)-L-norvalinyl]-L-phenylglycine Methyl Ester] came in with a melting point of 204 to 205 °C.

For `COC(=O)[C@@H](NC(=O)[C@@H](NC(=O)Cc1cc(F)cc(F)c1)C(C)(C)C)c1ccccc1` [Example 254, N-[N-(3,5-Difluorophenylacetyl)-L-tert-leucinyl]-L-phenylglycine Methyl Ester], the melting point is 176.4 °C.

Compound `CC[C@H](C)[C@H](NC(=O)Cc1cc(F)cc(F)c1)C(=O)N[C@H](C(=O)OC)c1ccccc1` [Example 255, N-[N-(3,5-Difluorophenylacetyl)-L-isoleucinyl]-L-phenylglycine Methyl Ester] displayed a melting point of 228.8 °C.

Compound `COC(=O)[C@@H](NC(=O)[C@@H](NC(=O)Cc1cc(F)cc(F)c1)C1CC1)c1ccccc1` [Example 257, N-[N-(3,5-Difluorophenylacetyl)-(S)-2-amino-2-(cyclopropyl)acetyl]-L-phenylglycine Methyl Ester] came in with a melting point of 225 to 226.5 °C.

For `COC(=O)[C@@H](NC(=O)[C@@H](NC(=O)Cc1cc(F)cc(F)c1)c1ccsc1)c1ccccc1` [Example 258, N-[N-(3,5-Difluorophenylacetyl)-(S)-2-amino-2-(thien-3-yl)acetyl]-L-phenylglycine Methyl Ester], the melting point came to 229.3 °C.

As for `COC(=O)[C@@H](NC(=O)[C@H](NC(=O)Cc1cc(F)cc(F)c1)c1cccs1)c1ccccc1` [Example 259, N-[N-(3,5-Difluorophenylacetyl)-(S)-2-amino-2-(thien-2-yl)acetyl]-L-phenylglycine Methyl Ester], the melting point was 230.8 °C.

As to `CC(C)(C)OC(=O)[C@@H](NC(=O)[C@@H](NC(=O)Cc1cc(F)cc(F)c1)c1ccccc1)c1ccccc1` [Example 263, N-[N-(3,5-Difluorophenylacetyl)-L-phenylglycinyl]-L-phenylglycine tert-Butyl Ester], the melting point is 185 °C.

As for `CC(C)(C)OC(=O)[C@@H](NC(=O)[C@@H](NC(=O)CC1CC1)c1ccccc1)c1ccccc1` [Example 264, N-[N-(Cyclopropylacetyl)-L-phenylglycinyl]-L-phenylglycine tert-Butyl Ester], the melting point came out at 187.5 °C.

On to `CC(C)(C)OC(=O)[C@@H](NC(=O)[C@@H](NC(=O)CC1CCCC1)c1ccccc1)c1ccccc1` [Example 265, N-[N-(Cyclopentylacetyl)-L-phenylglycinyl]-L-phenylglycine tert-Butyl Ester], for which the melting point is 190.8 °C.

As for `CCCC[C@H](NC(=O)[C@H](C)NC(=O)Cc1cc(F)cc(F)c1)C(=O)O` [Example 327, N-[N-(3,5-Difluorophenylacetyl)-L-alaninyl]-L-norleucine], the melting point fell in the range of 158.5 to 160.5 °C.

For `C[C@H](NC(=O)CC1CCCC1)C(=O)N[C@H](C(=O)OC(C)(C)C)c1ccccc1` [Example 328, N-[N-(Cyclopentaneacetyl)-L-alaninyl]-L-phenylglycine tert-Butyl Ester], the melting point lay within 133 to 138 °C.
